Experiments:
CYP3A4 = target: T1, CYP3A4 (Homo sapiens, UniProt P08684); experiment: CYP3A4 activity in cell group by luminescence method (P450-Glo, Luciferin-IPA); assay type: cell-based; conditions: HepaRG pre-induced with 2% DMSO, 2 ng/ml, 48 hr, vs control (FIG. 18)
T1 construct: endogenous in cells; host or cells: HepaRG cells (human liver tumor-derived; BIOPREDIC International)
Description: In order to confirm the enzyme activity of CYP3A4, which is particularly expressed in liver cells among the CYP enzymes in the cell group subjected to Raman observation, a test using a luminescence method (hereinafter a luminescence test) was performed in parallel with the Raman observation. The cell is group used in the luminescence test was a cell group separated from the cultured cells used in the below-mentioned Raman observation in (5). That is, the cell group cultured under the same conditions and at the same time as the cultured cells used in Raman observation was used. CYP luminescence test was performed using a commercially available luminescence assay kit (P450-Glo-CYP3A4-Assay-and-Screening-System) according to the provided protocol.
When the Luciferin-IPA substrate is converted to luciferin by CYP3A4, it becomes a substrate for luciferase, producing luminescence proportional to the activity of CYP3A4. […] Luciferase (50 μl) was added dropwise to the dispensed substrate-containing medium, and luminescence was caused using the luciferin-luciferase reaction. Luminescence was detected using a micro-plate reader (Synergy HTX, BioTek). The CYP3A4 activity detected by the present luminescence method is shown in FIG. 7, FIG. 14, FIG. 16, FIG. 18, FIG. 20, and FIG. 22.

CYP enzyme group = experiment: Raman observation of HepaRG hepatocytes, signal of oxidized CYP enzyme group (1370, 1636 cm^-1); assay type: cell-based, human
Source text: (§1) A Raman image of the cell group cultured using the above-mentioned method (1) or (2) was constructed by quantitatively measuring the Raman signal using Raman spectroscopy. Here, the “observation” in the present specification includes both detecting a Raman scattering signal of a cell group and acquiring and observing a Raman image of a cell group. […] Details are explained in each Example.
The culture medium of the cultured cell group was removed, and the cell group was washed twice with PBS. An observation solution (Live Cell Imaging Solution (A14291DJ, Thermo Fisher Scientific)) was added to the washed cell group. The thus-treated cell group was subjected to Raman observation using the Raman microscope (Non Patent Literature 3) described using FIG. 1 (FIG. 6, FIG. 9 to 11, FIG. 13 to FIG. 21, FIG. 23 to FIG. 26).
A 40× water immersion objective lens (CFI Apochromat Lambda S 40XC WI) equipped in a Raman microscope was used to excite the Raman scattered light of the cell group and to detect the Raman scattering signal. The excitation light of the Raman scattered light of the cell group was irradiated by condensing a laser beam with a wavelength of 532 nm into a straight line with a predetermined length (hereinafter referred to as a line) using the water immersion objective lens.
(§2) The flow of detection of Raman scattered light of a cell group that was generated by excitation with excitation light is explained. […] The Raman scattering signal imaged on the slit is then separated by diffraction grating inside the spectroscope and detected by a cooling-type CCD image sensor (PIXIS 400B, Princeton Instruments) used as a photodetector. Raman scattering signals scattered from everywhere on the condensed line can be measured simultaneously and independently by different pixels on the CCD. […] Respective Raman signals were simultaneously detected in an about 133.3 μm region on the direction of the condensed line.

[1] = system: CYP3A4, CYP1A2, CYP2B6, and CYP2C9; experiment: Induction of gene expression of CYP enzymes by inducing agents; assay type: cell-based, human; conditions: confirmed by the inventors
[2] = system: reduced heme b, mainly reduced cytochrome b5; experiment: Raman observation of HepaRG hepatocytes, reduced heme b signal (675 cm^-1); assay type: cell-based, human; conditions: HepaRG induced with 4 μM Rifampicin, inhibitor 10 μM for 5 min (FIG. 24)
Source text: as §1
The culture medium of the cultured cell group was removed, and the cell group was washed twice with PBS. An observation solution (Live Cell Imaging Solution (A14291DJ, Thermo Fisher Scientific)) was added to the washed cell group. […]
as §2

T1 sequence (P08684 whole entry): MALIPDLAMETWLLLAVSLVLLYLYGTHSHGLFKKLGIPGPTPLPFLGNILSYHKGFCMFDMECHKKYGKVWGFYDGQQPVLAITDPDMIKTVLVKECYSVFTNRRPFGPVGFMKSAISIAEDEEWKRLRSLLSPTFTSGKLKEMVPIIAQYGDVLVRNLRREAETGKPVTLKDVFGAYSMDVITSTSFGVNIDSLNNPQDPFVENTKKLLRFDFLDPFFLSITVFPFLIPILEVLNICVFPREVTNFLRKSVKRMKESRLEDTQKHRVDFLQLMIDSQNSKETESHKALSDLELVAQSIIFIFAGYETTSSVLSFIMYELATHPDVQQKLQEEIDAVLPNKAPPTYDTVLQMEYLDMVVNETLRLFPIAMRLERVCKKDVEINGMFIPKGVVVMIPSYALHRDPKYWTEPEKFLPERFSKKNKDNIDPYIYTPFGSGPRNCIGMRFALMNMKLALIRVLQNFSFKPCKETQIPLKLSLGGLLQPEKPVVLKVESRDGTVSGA

Compound: Interleukin-6 [IL-6]
- activity of CYP3A4 (luminescence test) after suppression (CYP3A4): decreases
- CYP activity detected using Raman signals (1636 cm^-1) after suppression (CYP enzyme group; HepaRG pre-induced with 2% DMSO, 2 ng/ml, 48 hr, vs control (FIGS. 18, 19)): downregulation

Compound: O=C1NC(=O)C(c2ccccc2)(c2ccccc2)N1 [Phenytoin]
- gene expression of at least one of CYP3A4, CYP1A2, CYP2B6, CYP2C9 [1]: induce gene expression

Compound: NC(=O)N1c2ccccc2C=Cc2ccccc21 [Carbamazepine]
- gene expression of at least one of CYP3A4, CYP1A2, CYP2B6, CYP2C9 [1]: induce gene expression

Compound: CC[C@]1(C)C[C@@H](OC(=O)CSc2nnc(N)[nH]2)[C@]2(C)[C@H](C)CC[C@]3(CCC(=O)[C@H]32)[C@@H](C)[C@@H]1O [Azamulin]
- Raman signal with a wavenumber of 675 cm^-1 after inhibition [2]: did not increase
- Raman signal at a wavenumber of 1636 cm^-1 after inhibition (CYP enzyme group; HepaRG induced with 4 μM Rifampicin, inhibitor 10 μM for 5 min (FIG. 23)): reduces
- median value of per-cell Raman signal at 1636 cm^-1 after inhibition (CYP enzyme group; HepaRG induced with 4 μM Rifampicin, inhibitor 10 μM for 5 min, vs not administered, statistically significant (FIG. 23)): decreased
